Laboratory results: patent EP1746090A1, “Sustituted pyrazoline compounds, having predetermined stereochemistry, for reducing triglycerides in blood” (Laboratorios del Dr. Esteve S.A., priority 2005, dated 2007)

Test system: male mice B6 Lep ob/ob
Test: In-vivo testing for regulation of triglycerides in blood plasma (obese mice on high fat diet)
Details: obese mice fed with high fat diet for 7 weeks; 30 mg/kg/day, p.o., 14 days; whole blood, test strips "Lipid panel"
Excerpt: This effect is probed in obese mice fed with high fat diet. In the following paragraphs the method of this study is described.
The study is done using six weeks old male mice B6 Lep ob/ob, obtained from Charles River (France). Mice are divided in 3 groups: I (control), II (vehicle), III (example 0).
The animals of the group I receive the standard diet (D-12450B, Research Diets, NJ, USA).
The animals of the groups II and III are fed with a High Fat Diet (D-12492, Research Diets, NJ, USA), in both cases for 7 weeks (References 1 and 2).
The animals of the groups III are fed with a High Fat Diet (D-12492, Research Diets, NJ, USA), in both cases for 7 weeks (References 1 and 2).
At the end of the feeding period of 7 weeks, the treatment period (14 days) is started: Group II mice receive the vehicle (10 ml/kg/day, po, of the aqueous solution of acacia gum, 5% W/V). Group III is administered with 30 mg/kg/day, p.o., of the inventive compound (R)-5-(4-chlorophenyl)-1-(2,4-dichlorophenyl)-4,5-dihydro-pyrazole-3-carboxylic acid according to Example 0. […] The three groups of mice have the same diet than in the previous period.
At the end of the 14 days period of treatment, the blood levels of triglicerides of the animals are determined. […]

In the case of “(S)-5-(4-chlorophenyl)-1-(2,4-dichlorophenyl)-4,5-dihydro-pyrazole-3-carboxylic acid [example 0]”, the “blood levels of triglicerides” value is reported as “inhibitor of high blood levels of triglicerides”.
